Where no end group is shown, it is not given here.
Assays:
anesthetized dogs = experiment: Heart, blood flow, blood glucose and lipolysis in anesthetized dogs; assay type: in vivo, dog
Excerpt: [Gln^4 ]-neurotensin ([Gln]^4 -NT) has also been studied on the heart and on the blood from in subcutaneous adipose tissue, skin, and small intestine in anesthetized dogs. In addition, its possible action has been investigated on blood glucose concentration and lypolysis in subcutaneous adipose tissue.

rats [1] = experiment: Hypotensive Assay; assay type: in vivo, rat; details: rats anesthetized with pentobarbital; 50 picomoles/100 g body weight via tail vein
Description: Systemic blood pressure was measured with a Hewlett-Packard recorder and pressure transducer (preamplifier 8805 B, recorder 7782 A, transducer 267 BC) following cannulations of the carotid artery in rats weighing 200-250 g and anesthetized with pentobarbital (50 mg/kg). The test samples were dissolved in 0.85% saline and administered via a tail vein.

rats [2] = experiment: Hyperglycemic Assay; assay type: in vivo, rat; details: 15 minutes after injection
Description: Rats weighing 100-125 g were anesthetized with pentobarbital (50 mg/kg). The test samples were dissolved in 0.85% saline and administered via a tail vein. Each animal was killed by decapitation 15 minutes after injection and plasma glucose levels were measured by the method of Ceriotti and Frank. […] The plasma glucose values are given in mg %.

guinea pig ileum = experiment: Contraction of Guinea Pig Ileum; details: ileum segments in Tyrode's solution at 37°
Description: Freshly dissected segments of guinea pig ileum were suspended in a 40 ml bath which was maintained at 37° and serated with a mixture of O2 --CO2 (95:5), and containing Tyrode's solution.

rabbit anti-NT serum = experiment: Radioimmunoassay; assay type: binding; details: I^125 -NT, two rabbit antisera, pH 7.4, 4° C.
Description: Two antisera were used in these assays. One has been characterized as being directed solely toward the COOH-terminus, and the other requires most of the molecule.
The radioimmunoassay method used was an equilibrium system carried out at pH 7.4 in 10 × 75 mm disposable flint glass tubes and employing PBS-gel as diluent. […] The mixtures were allowed to stand at 4° C. for 18-24 hours. The "bound" (B) and "free" (F) trace were separated at 4° C. by the rapid addition of 1.0 ml of a 1:4 dilution of a stock suspension of charcoal (2.5%) and dextran T-70 (0.25%) in PBS to each tube. The tubes were immediately centrifuged for 20 min at 2000 rpm (PRJ-Universal), and the supernatant fluids were decanted into new tubes. […] "Damage" was usually 2-4% and using antisera at a final dilution of 1:10,000 gave 50-70% binding. All unknowns were assayed in duplicate at three dilutions so as to span the sensitive portion of the curve. The results were obtained by averaging the concentrations determined at each dilution provided that they agreed within 20%.

[3] = tested on: canine fundic, antral and intestinal pouches; experiment: Spontaneous motor activity in isolated canine fundic, antral and intestinal pouches; assay type: in vivo, dog; details: intravenous infusion for 30 min
Description: The action of [Gln^4 ]-neurotensin was tested on the spontaneous motor activity in isolated canine fundic, antral and intestinal pouches. All of these pouches had been prepared more than 6 months prior to the testing. […] The gastro-intestinal tract appears to be the principal target organ for [Gln^4 ]-neurotensin, and is a basis for clinical use of [Gln^4 ]-neurotensin in patients having diseases of gastroenterology (S. Andersson, M.D. S. Rosell M.D., U. Hjelmquist M.D., D. Chang Ph.D. and K. Folkers Ph.D., Gastroenterology, in press).

[4] = Simulation of isolation steps: stability in acetone 1 N HCl at 37° C.; assay type: physicochemical
Description: Toward simulation of these isolation steps, both in terms of temperature and the concentration of hydrochloric acid, 2 mg of synthetic [Gln^4 ]-neurotensin was dissolved in a mixture of acetone 1 N HCl (100:3 v/v), and this solution was maintained at 37° C. for 12 hours which can be presumed to be less than the time of the original large scale operation at the New England Enzyme Center in Boston. An aliquot of the solution was taken for thin layer electrophoresis on cellulose plates (160 microns, Eastman Chromatographic sheet) at 500 volts in pyridine-acetate buffer, pH 6.5. The major spot on the plate corresponded to [Gln^4 ]-neurotensin.However, a new and minor spot moving toward the cathode was present which had the same TLC retention time as neurotensin. The solution was allowed to stand overnight, and it was then maintained again at 37° for a second 12-hr period. […] The minor spot had increased during the second 12-hr period. The remaining solution was concentrated under reduced pressure at room temperature to remove acetone, and the aqueous residue was then lyophilized. The residual white powder was subjected to thin layer electrophoresis on cellulose plates and pyridine acetate buffer at pH 6.5 and at 500 volts. […] The Rf values were identical with those of an authentic specimen of [Gln^4 ]-neurotensin as follows: Rf^1 0.25; Rf^2 0.89; Rf^3 0.50; Rf^4 0.42; Rf^5 0.21; and Rf^6 0.98.
In the second experiment 10 mg of pure [Gln^4 ]-neurotensin was dissolved in a mixture of acetone 1 N HCl (100:3 v/v), and the solution was maintained at 37° C. for 27 hours to simulate again the steps of isolation which are being critiqued. This time, 3 spots were observed on electrophoretic analysis of an aliquot of the solution which had been maintained at 37° for 27 hrs. Preparative thin layer electrophoresis, extraction, and workup yielded 4.2 mg of recovered [Gln^4 ]-neurotensin and 4.3 mg of neurotensin. The third and much weaker spot was due to only a trace amount of another peptide which presumably resulted from further hydrolysis. […] The fact that in these two experiments, not all of the [Gln^4 ]-neurotensin was converted to neurotensin is relatively unimportant, because these experiments on hydrolysis of the pure [Gln^4 ]-neurotensin only simulates the conditions of processing of 20-45 kg of hypothalamic tissue.

[5] = 10 mg in acetone 1 N HCl (100:3 v/v), 27 hours

## Substance P (RPKPQQFFGLM-NH2; UniProt P20366 58-68, looked up) [another polypeptide extracted from the hypothalamus, reference compound]
Anesthetized dogs; anesthetized dogs
  action in the peripheral vasculature: hypotension and pronounced vasodilation and no vasoconstrictor or metabolic actions

## CC[C@H](C)[C@H](NC(=O)[C@H](Cc1ccc(O)cc1)NC(=O)[C@@H]1CCCN1C(=O)[C@H](CCCNC(=N)N)NC(=O)[C@H](CCCNC(=N)N)NC(=O)[C@@H]1CCCN1C(=O)[C@H](CCCCN)NC(=O)[C@H](CC(N)=O)NC(=O)[C@H](CCC(N)=O)NC(=O)[C@H](Cc1ccc(O)cc1)NC(=O)[C@H](CC(C)C)NC(=O)[C@@H]1CCC(=O)N1)C(=O)N[C@@H](CC(C)C)C(=O)O [[Gln^4]-NT]
Rats [1]
  -ΔSystemic Blood Pressure: 42 ± 8 mm HG
Rats [2]; 25 picomoles/100 g body weight via tail vein
  Hyperglycemic Assay, plasma glucose: 15±5 mg %
Rats [2]; 50 picomoles/100 g body weight via tail vein
  Hyperglycemic Assay, plasma glucose: 34±4 mg %
Rats [2]; 100 picomoles/100 g body weight via tail vein
  Hyperglycemic Assay, plasma glucose: 116 mg %
Guinea pig ileum
  Contraction of Guinea Pig Ileum, potency: about equivalent potency
Rabbit anti-NT serum
  % Cross Ractivity (Ab #4, #6): 90-100%
Anesthetized dogs; anesthetized dogs
  action in the peripheral vasculature: delayed vasoconstriction which is prominent is subcutaneous adipose tissue
  blood glucose concentration: increased blood glucose concentration
  cardiac action: no cardiac action
Anesthetized dogs; anesthetized dogs, listed as [Gln]^4 -NT
  action in the peripheral vasculature: both vasodilator and vasoconstrictor actions
Anesthetized dogs; subcutaneous adipose tissue
  lipid metabolism in adipose tissue: no evidence of a change in lipid metabolism in adipose tissue
[3]
  dose inducing significant motor inhibition, vagally innervated antral pouches: 6.3 ng/kg/min
  dose inhibiting motor activity, vagally denervated fundic pouches: above 25 ng × kg^-1 × min^-1
[4]; 2 mg in acetone 1 N HCl (100:3 v/v), two 12-hr periods
  recovered [Gln^4 ]-neurotensin: About 1 mg
[4]; [5]
  neurotensin formed: 4.3 mg
  recovered [Gln^4 ]-neurotensin: 4.2 mg
[4]; acetone 1 N HCl (100:3 v/v)
  stability under the isolation conditions: hydrolyzed or converted to neurotensin
